# Reference: patent publication US8192962B2, “Processes for detecting toxic substances” (Daikin Industries, Ltd., priority 2001, dated 2012)
# System: DNA repair protein genes
# Assay: DNA chip mRNA expression in yeast, DNA repair protein genes (Table 3)
# Format: cell-based, Saccharomyces cerevisiae S288C
# Conditions: incubated two hours, concentrations as in the 1st table
# Summary of the method: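 Cells were grown at 25° C. in YPD, treated at logarithmic phase for 2 h with a chemical at a concentration inhibiting growth but not causing death, and compared with untreated cultures. Labeled cDNA was hybridized to a DNA chip carrying all yeast genes, and the expression ratio was taken from scanner fluorescence.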
structure (smiles),measurement,setting,value
"CCCCCCCCCCCCc1ccc(S(=O)(=O)[O-])cc1.[Na+] [(17), sodium dodecylbenzosulfonate]",The level of expressed mRNA in the presence of chemical substance/The level of expressed mRNA in the absence of chemical substance,yeast gene YAL015C,1.1
same,The level of expressed mRNA in the presence of chemical substance/The level of expressed mRNA in the absence of chemical substance,yeast gene YAR007C,0.8
same,The level of expressed mRNA in the presence of chemical substance/The level of expressed mRNA in the absence of chemical substance,yeast gene YBL019W,0.8
same,The level of expressed mRNA in the presence of chemical substance/The level of expressed mRNA in the absence of chemical substance,yeast gene YBR073W,0.7
same,The level of expressed mRNA in the presence of chemical substance/The level of expressed mRNA in the absence of chemical substance,yeast gene YBR272C,1.1
same,The level of expressed mRNA in the presence of chemical substance/The level of expressed mRNA in the absence of chemical substance,yeast gene YCR014C,1.0
same,The level of expressed mRNA in the presence of chemical substance/The level of expressed mRNA in the absence of chemical substance,yeast gene YDL017W,0.8
same,The level of expressed mRNA in the presence of chemical substance/The level of expressed mRNA in the absence of chemical substance,yeast gene YDL059C,0.8
same,The level of expressed mRNA in the presence of chemical substance/The level of expressed mRNA in the absence of chemical substance,yeast gene YDL200C,0.9
same,The level of expressed mRNA in the presence of chemical substance/The level of expressed mRNA in the absence of chemical substance,yeast gene YDR054C,0.8
same,The level of expressed mRNA in the presence of chemical substance/The level of expressed mRNA in the absence of chemical substance,yeast gene YDR369C,0.8
same,The level of expressed mRNA in the presence of chemical substance/The level of expressed mRNA in the absence of chemical substance,yeast gene YEL019C,0.8
same,The level of expressed mRNA in the presence of chemical substance/The level of expressed mRNA in the absence of chemical substance,yeast gene YEL037C,1.0
same,The level of expressed mRNA in the presence of chemical substance/The level of expressed mRNA in the absence of chemical substance,yeast gene YER162C,1.2
same,The level of expressed mRNA in the presence of chemical substance/The level of expressed mRNA in the absence of chemical substance,yeast gene YFL014W,1.5
same,The level of expressed mRNA in the presence of chemical substance/The level of expressed mRNA in the absence of chemical substance,yeast gene YGL058W,1.1
same,The level of expressed mRNA in the presence of chemical substance/The level of expressed mRNA in the absence of chemical substance,yeast gene YGL091C,1.4
same,The level of expressed mRNA in the presence of chemical substance/The level of expressed mRNA in the absence of chemical substance,yeast gene YGL127C,1.0
same,The level of expressed mRNA in the presence of chemical substance/The level of expressed mRNA in the absence of chemical substance,yeast gene YGL163C,0.9
same,The level of expressed mRNA in the presence of chemical substance/The level of expressed mRNA in the absence of chemical substance,yeast gene YGL249W,1.0
same,The level of expressed mRNA in the presence of chemical substance/The level of expressed mRNA in the absence of chemical substance,yeast gene YGR180C,1.0
same,The level of expressed mRNA in the presence of chemical substance/The level of expressed mRNA in the absence of chemical substance,yeast gene YGR231C,1.0
same,The level of expressed mRNA in the presence of chemical substance/The level of expressed mRNA in the absence of chemical substance,yeast gene YGR258C,1.0
same,The level of expressed mRNA in the presence of chemical substance/The level of expressed mRNA in the absence of chemical substance,yeast gene YHR164C,0.8
same,The level of expressed mRNA in the presence of chemical substance/The level of expressed mRNA in the absence of chemical substance,yeast gene YIL036W,1.1
same,The level of expressed mRNA in the presence of chemical substance/The level of expressed mRNA in the absence of chemical substance,yeast gene YIL072W,1.0
same,The level of expressed mRNA in the presence of chemical substance/The level of expressed mRNA in the absence of chemical substance,yeast gene YIL143C,0.9
same,The level of expressed mRNA in the presence of chemical substance/The level of expressed mRNA in the absence of chemical substance,yeast gene YIL153W,0.9
same,The level of expressed mRNA in the presence of chemical substance/The level of expressed mRNA in the absence of chemical substance,yeast gene YIR002C,1.1
same,The level of expressed mRNA in the presence of chemical substance/The level of expressed mRNA in the absence of chemical substance,yeast gene YJL026W,1.4
same,The level of expressed mRNA in the presence of chemical substance/The level of expressed mRNA in the absence of chemical substance,yeast gene YJR046W,0.7
same,The level of expressed mRNA in the presence of chemical substance/The level of expressed mRNA in the absence of chemical substance,yeast gene YJR052W,1.0
same,The level of expressed mRNA in the presence of chemical substance/The level of expressed mRNA in the absence of chemical substance,yeast gene YKL145W,1.1
same,The level of expressed mRNA in the presence of chemical substance/The level of expressed mRNA in the absence of chemical substance,yeast gene YLR103C,1.1
same,The level of expressed mRNA in the presence of chemical substance/The level of expressed mRNA in the absence of chemical substance,yeast gene YLR233C,1.0
same,The level of expressed mRNA in the presence of chemical substance/The level of expressed mRNA in the absence of chemical substance,yeast gene YLR288C,1.2
same,The level of expressed mRNA in the presence of chemical substance/The level of expressed mRNA in the absence of chemical substance,yeast gene YML032C,1.0
same,The level of expressed mRNA in the presence of chemical substance/The level of expressed mRNA in the absence of chemical substance,yeast gene YML058W,1.3
same,The level of expressed mRNA in the presence of chemical substance/The level of expressed mRNA in the absence of chemical substance,yeast gene YMR035W,2.2
same,The level of expressed mRNA in the presence of chemical substance/The level of expressed mRNA in the absence of chemical substance,yeast gene YMR072W,0.9
same,The level of expressed mRNA in the presence of chemical substance/The level of expressed mRNA in the absence of chemical substance,yeast gene YMR096W,2.2
same,The level of expressed mRNA in the presence of chemical substance/The level of expressed mRNA in the absence of chemical substance,yeast gene YMR284W,1.1
same,The level of expressed mRNA in the presence of chemical substance/The level of expressed mRNA in the absence of chemical substance,yeast gene YNL213C,0.9
same,The level of expressed mRNA in the presence of chemical substance/The level of expressed mRNA in the absence of chemical substance,yeast gene YNL250W,1.0
same,The level of expressed mRNA in the presence of chemical substance/The level of expressed mRNA in the absence of chemical substance,yeast gene YNL261W,0.8
same,The level of expressed mRNA in the presence of chemical substance/The level of expressed mRNA in the absence of chemical substance,yeast gene YNL312W,1.2
same,The level of expressed mRNA in the presence of chemical substance/The level of expressed mRNA in the absence of chemical substance,yeast gene YOL043C,1.0
same,The level of expressed mRNA in the presence of chemical substance/The level of expressed mRNA in the absence of chemical substance,yeast gene YOR005C,1.1
same,The level of expressed mRNA in the presence of chemical substance/The level of expressed mRNA in the absence of chemical substance,yeast gene YOR386W,2.1
same,The level of expressed mRNA in the presence of chemical substance/The level of expressed mRNA in the absence of chemical substance,yeast gene YPL022W,0.9
same,The level of expressed mRNA in the presence of chemical substance/The level of expressed mRNA in the absence of chemical substance,yeast gene YPL164C,1.0
same,The level of expressed mRNA in the presence of chemical substance/The level of expressed mRNA in the absence of chemical substance,yeast gene YPL194W,1.0
same,The level of expressed mRNA in the presence of chemical substance/The level of expressed mRNA in the absence of chemical substance,yeast gene YPR025C,1.1
